Source: US11400058B2, “Intravenous formulations of coenzyme Q10 (CoQ10) and methods of use thereof” (Berg LLC, priority 2010, dated 2022)
Marks after values point to notes of the source that are not given here.

Experiment: 4-week repeat-dose toxicology study in rats with 2-week recovery (Study 20000328)
Details: for Died or Sacrificed Moribund: animals of 15
[1] = 62.5 mg/kg F, end of dosing, animals of 10
[2] = 62.5 mg/kg F, end of recovery, animals of 5
[3] = 62.5 mg/kg M, end of dosing, animals of 10

COC1=C(OC)C(=O)C(C/C=C(\C)CC/C=C(\C)CC/C=C(\C)CC/C=C(\C)CC/C=C(\C)CC/C=C(\C)CC/C=C(\C)CC/C=C(\C)CC/C=C(\C)CCC=C(C)C)=C(C)C1=O [CoQ10, Coenzyme Q10]
Died or Sacrificed Moribund (62.5 mg/kg F): 0 | ALT (62.5 mg/kg F, end of dosing): 19 IU/L | APPT (62.5 mg/kg F, end of dosing): 15.1 s | AST (62.5 mg/kg F, end of dosing): 67* IU/L | Body Weight, percent difference from controls (62.5 mg/kg F, end of dosing): −1.7% | Eosinophils (62.5 mg/kg F, end of dosing): 0.09 10^3/cmm | Erythrocytes (62.5 mg/kg F, end of dosing): 7.77* 10^6/cmm | Food Consumption, percent difference from controls (62.5 mg/kg F, end of dosing): −4.0% | GGT (62.5 mg/kg F, end of dosing): 0.42 IU/L | Hematocrit (62.5 mg/kg F, end of dosing): 42.4* % | Hemoglobin (62.5 mg/kg F, end of dosing): 14.7* g/dL | Leukocytes (62.5 mg/kg F, end of dosing): 8.33 10^3/cmm | Liver weight (absolute), percent difference from controls (62.5 mg/kg F, end of dosing): −6.1% | Lymphocytes (62.5 mg/kg F, end of dosing): 6.79 10^3/cmm | Neutrophils (62.5 mg/kg F, end of dosing): 1.06 10^3/cmm | Spleen weight (absolute), percent difference from controls (62.5 mg/kg F, end of dosing): −48.2* % | Bone Marrow, Sternum Hyperplasia [1]: 0 | Bone Marrow, Sternum Hyperplasia, Mild [1]: 0 | Bone Marrow, Sternum Hyperplasia, Minimal [1]: 0 | Gross Pathology: Enlarged Pancreatic Lymph Nodes [1]: 0 | Gross Pathology: Pale Adrenal [1]: 0 | Gross Pathology: Pale Liver [1]: 7 | Gross Pathology: Pale Lymph Nodes [1]: 1 | Gross Pathology: Pale Ovaries [1]: 0 | Gross Pathology: Pale Pituitary [1]: 0 | Gross Pathology: Pale SQ Skin [1]: 0 | Liver Focal Necrosis [1]: 1 | Liver Focal Necrosis, Minimal [1]: 1 | Liver Histiocytic Infiltration [1]: 7 | Liver Histiocytic Infiltration, Mild [1]: 0 | Liver Histiocytic Infiltration, Minimal [1]: 7 | Liver Histiocytic Infiltration, Moderate [1]: 0 | Liver Vacuolation [1]: 7 | Liver Vacuolation, Mild [1]: 0 | Liver Vacuolation, Minimal [1]: 7 | Lymph Node, Man. Histiocytic Infiltration [1]: 4 | Lymph Node, Man. Histiocytic Infiltration, Mild [1]: 0 | Lymph Node, Man. Histiocytic Infiltration, Minimal [1]: 4 | Lymph Node, Man. Histiocytic Infiltration, Moderate [1]: 0 | Lymph Node, Mes. Histiocytic Infiltration [1]: 9 | Lymph Node, Mes. Histiocytic Infiltration, Mild [1]: 2 | Lymph Node, Mes. Histiocytic Infiltration, Minimal [1]: 7 | Lymph Node, Mes. Histiocytic Infiltration, Moderate [1]: 0 | Ovary Histiocytic Infiltration [1]: 0 | Ovary Histiocytic Infiltration, Mild [1]: 0 | Ovary Histiocytic Infiltration, Minimal [1]: 0 | Ovary Histiocytic Infiltration, Moderate [1]: 0 | Skin, Dermis Histiocytic Infiltration [1]: 0 | Skin, Dermis Histiocytic Infiltration, Marked [1]: 0 | Skin, Dermis Histiocytic Infiltration, Mild [1]: 0 | Skin, Dermis Histiocytic Infiltration, Moderate [1]: 0 | Skin, SQ Histiocytic Infiltration [1]: 0 | Skin, SQ Histiocytic Infiltration, Mild [1]: 0 | Spleen Histiocytic Infiltration [1]: 4 | Spleen Histiocytic Infiltration, Marked [1]: 0 | Spleen Histiocytic Infiltration, Mild [1]: 4 | Spleen Histiocytic Infiltration, Moderate [1]: 0 | ALT (62.5 mg/kg F, end of recovery): 19 IU/L | APPT (62.5 mg/kg F, end of recovery): 14.4 s | AST (62.5 mg/kg F, end of recovery): 83 IU/L | Body Weight, percent difference from controls (62.5 mg/kg F, end of recovery): −0.9% | Food Consumption, percent difference from controls (62.5 mg/kg F, end of recovery): −7.9% | GGT (62.5 mg/kg F, end of recovery): 0.12 IU/L | Liver weight (absolute), percent difference from controls (62.5 mg/kg F, end of recovery): +4.6% | Spleen weight (absolute), percent difference from controls (62.5 mg/kg F, end of recovery): +0.5% | Adrenal Gland Vacuolation [2]: 3 | Adrenal Gland Vacuolation, Marked [2]: 0 | Adrenal Gland Vacuolation, Mild [2]: 0 | Adrenal Gland Vacuolation, Minimal [2]: 3 | Adrenal Gland Vacuolation, Moderate [2]: 0 | Gross Pathology: Enlarged Spleen [2]: 0 | Gross Pathology: Pale Iliac Lymph Node [2]: 2 | Gross Pathology: Pale Liver [2]: 3 | Gross Pathology: Pale Ovaries [2]: 0 | Gross Pathology: Pale Pancreatic Lymph Node [2]: 1 | Liver Focal Necrosis [2]: 0 | Liver Focal Necrosis, Mild [2]: 0 | Liver Focal Necrosis, Minimal [2]: 0 | Liver Histiocytic Infiltration [2]: 5 | Liver Histiocytic Infiltration, Mild [2]: 2 | Liver Histiocytic Infiltration, Minimal [2]: 3 | Liver Histiocytic Infiltration, Moderate [2]: 0 | Liver Multifocal Necrosis [2]: 0 | Liver Multifocal Necrosis, Mild [2]: 0 | Liver Multifocal Necrosis, Moderate [2]: 0 | Liver Vacuolation [2]: 5 | Liver Vacuolation, Mild [2]: 2 | Liver Vacuolation, Minimal [2]: 2 | Liver Vacuolation, Moderate [2]: 1 | Lymph Node, Man. Histiocytic Infiltration [2]: 2 | Lymph Node, Man. Histiocytic Infiltration, Mild [2]: 0 | Lymph Node, Man. Histiocytic Infiltration, Minimal [2]: 2 | Lymph Node, Man. Histiocytic Infiltration, Moderate [2]: 0 | Lymph Node, Mes. Histiocytic Infiltration [2]: 4 | Lymph Node, Mes. Histiocytic Infiltration, Mild [2]: 0 | Lymph Node, Mes. Histiocytic Infiltration, Minimal [2]: 4 | Ovary Histiocytic Infiltration [2]: 4 | Ovary Histiocytic Infiltration, Mild [2]: 0 | Ovary Histiocytic Infiltration, Minimal [2]: 4 | Ovary Histiocytic Infiltration, Moderate [2]: 0 | Spleen Histiocytic Infiltration [2]: 3 | Spleen Histiocytic Infiltration, Marked [2]: 0 | Spleen Histiocytic Infiltration, Mild [2]: 1 | Spleen Histiocytic Infiltration, Minimal [2]: 2 | Spleen Histiocytic Infiltration, Moderate [2]: 0 | Died or Sacrificed Moribund (62.5 mg/kg M): 0 | ALT (62.5 mg/kg M, end of dosing): 22 IU/L | APPT (62.5 mg/kg M, end of dosing): 17.6 s | AST (62.5 mg/kg M, end of dosing): 74 IU/L | Body Weight, percent difference from controls (62.5 mg/kg M, end of dosing): −0.5% | Eosinophils (62.5 mg/kg M, end of dosing): 0.09* 10^3/cmm | Erythrocytes (62.5 mg/kg M, end of dosing): 8.14* 10^6/cmm | Food Consumption, percent difference from controls (62.5 mg/kg M, end of dosing): +2.5% | GGT (62.5 mg/kg M, end of dosing): 0.00 IU/L | Hematocrit (62.5 mg/kg M, end of dosing): 44.3% | Hemoglobin (62.5 mg/kg M, end of dosing): 15.1* g/dL | Leukocytes (62.5 mg/kg M, end of dosing): 8.56* 10^3/cmm | Liver weight (absolute), percent difference from controls (62.5 mg/kg M, end of dosing): −5.5% | Lymphocytes (62.5 mg/kg M, end of dosing): 7.02* 10^3/cmm | Neutrophils (62.5 mg/kg M, end of dosing): 1.06 10^3/cmm | Spleen weight (absolute), percent difference from controls (62.5 mg/kg M, end of dosing): −57.3* % | Bone Marrow, Sternum Hyperplasia [3]: 0 | Bone Marrow, Sternum Hyperplasia, Mild [3]: 0 | Bone Marrow, Sternum Hyperplasia, Minimal [3]: 0 | Gross Pathology: Enlarged Pancreatic Lymph Nodes [3]: 0 | Gross Pathology: Pale Adrenal [3]: 0 | Gross Pathology: Pale Liver [3]: 9 | Gross Pathology: Pale Lymph Nodes [3]: 0 | Gross Pathology: Pale Pituitary [3]: 0 | Gross Pathology: Pale SQ Skin [3]: 1 | Liver Focal Necrosis [3]: 0 | Liver Focal Necrosis, Minimal [3]: 0 | Liver Histiocytic Infiltration [3]: 2 | Liver Histiocytic Infiltration, Mild [3]: 1 | Liver Histiocytic Infiltration, Minimal [3]: 1 | Liver Histiocytic Infiltration, Moderate [3]: 0 | Liver Vacuolation [3]: 2 | Liver Vacuolation, Mild [3]: 0 | Liver Vacuolation, Minimal [3]: 2 | Lymph Node, Man. Histiocytic Infiltration [3]: 6 | Lymph Node, Man. Histiocytic Infiltration, Mild [3]: 1 | Lymph Node, Man. Histiocytic Infiltration, Minimal [3]: 4 | Lymph Node, Man. Histiocytic Infiltration, Moderate [3]: 1 | Lymph Node, Mes. Histiocytic Infiltration [3]: 9 | Lymph Node, Mes. Histiocytic Infiltration, Mild [3]: 4 | Lymph Node, Mes. Histiocytic Infiltration, Minimal [3]: 5 | Lymph Node, Mes. Histiocytic Infiltration, Moderate [3]: 0 | Skin, Dermis Histiocytic Infiltration [3]: 0 | Skin, Dermis Histiocytic Infiltration, Marked [3]: 0 | Skin, Dermis Histiocytic Infiltration, Mild [3]: 0 | Skin, Dermis Histiocytic Infiltration, Moderate [3]: 0 | Skin, SQ Histiocytic Infiltration [3]: 0 | Skin, SQ Histiocytic Infiltration, Mild [3]: 0 | Spleen Histiocytic Infiltration [3]: 1 | Spleen Histiocytic Infiltration, Marked [3]: 0
